Reference: patent US20220401458A1 (Glia, LLC, priority 2019, published 2022)

Assays:
[1] = Serum total testosterone levels by competitive ELISA after twice daily topical administration to rat forehead; format: in vivo, male Sprague-Dawley rats; details: about 0.2% testosterone gel on shaved forehead twice daily for 14 days; serum 30 min after final application; one-way t-test p 0.08 (FIG. 1)
Description: (§1) Hormone Assessment: Blood was collected, stored at 4° C. overnight and spun down to collect serum. Serum was analyzed for total testosterone levels (T) and luteinizing hormone (LH) levels by competitive ELISA using commercially available kits (Enzo Life Sciences). […] All samples were run in duplicate. For assessing LH, serum was diluted 1:2 and, due to high variance, samples were run in quadruplet. Obvious outlying values were omitted and data were averaged for the final analysis.

[2] = test system: corneal mechanical thresholds; assay: Corneal mechanical threshold in rat (surrogate for effect on dry eye); format: in vivo; details: p<0.01 (FIG. 5)
Description: In the same animal model as used in Example 1, the corneal mechanical thresholds were determined as a surrogate for effect on dry eye.

[3] = Case study Patient: blood testosterone levels during topical testosterone gel to forehead; format: in vivo, human; details: for concentration at 2 months / concentration at 10 months: human, blood, topical, 0.14 mg
Description: (§2) In February 2019, symptoms continued and progressed. Patient was prescribed carbidopa/levodopa 25 mg/100 mg TID.
Patient was maintained at these levels.

Parkinson's disease = assay: Case study Patient: Parkinson's disease symptoms during topical testosterone gel to forehead; format: in vivo, human
From the text: They were diagnosed with Parkinson's in May 2016, confirmed October 2016 and April 2017 by independent DAT scans. Symptoms were bradykinesia of the legs, rigidity/stiffness, postural instability, specifically trouble with balance and falling as well as trouble with moving and walking, with peripheral neuropathy on both feet. Patient experienced no particular tremors. They also experienced chronic and increasing fatigue and loss of energy, as well as chronic head colds that would last about one week at a time every 6 weeks.
as §2

luteinizing hormone (LH) = assay: Serum luteinizing hormone levels by competitive ELISA after topical administration to rat forehead; format: in vivo, male Sprague-Dawley rats; details: about 0.2% testosterone gel on forehead twice daily for 14 days; not statistically significant
Description: as §1

SMILES: C[C@]12CC[C@H]3[C@@H](CCC4=CC(=O)CC[C@@]43C)[C@@H]1CC[C@@H]2O [testosterone, 17β-hydroxyandrost-4-en-3-one]
- increase in testosterone levels in the treated rats compared to controls [1]: 42%
- corneal mechanical threshold pressure compared with control ([2]; 60 minutes after administration to shaved head): significantly higher
- corneal mechanical threshold pressure compared with control ([2]; 120 minutes after administration to shaved head): significantly higher
- bioavailable testosterone ([3]; 0.2% w/w gel once daily to forehead, 10 months): 2.0 ng/dL
- concentration at 2 months ([3]; Free testosterone, 0.2% w/w gel once daily to forehead): 0.08 pg/mL
- concentration at 10 months ([3]; Free testosterone, 0.2% w/w gel once daily to forehead, 10 months): 0.001 ng/mL
- concentration at 2 months ([3]; Total testosterone, 0.14 mg in 0.07 g gel (0.2% w/w) once daily to forehead): 140 pg/mL
- concentration at 10 months ([3]; Total testosterone, 0.2% w/w gel once daily to forehead, 10 months): 0.21 ng/mL
- increase of repetitions in exercises (Parkinson's disease; 20-month period on gel, reported by physical trainer): about 25%
- cognitive decline (Parkinson's disease; April 2020): no cognitive decline
- sex drive compared to before start of testosterone treatment (Parkinson's disease; April 2020): increased sex drive
- strength in knees and rest of body (Parkinson's disease; April 2020): increased strength
- energy / ability to exercise (Parkinson's disease; after starting the testosterone gel 0.14 mg once daily to forehead): more energetic and was able to exercise
- progression of Parkinson's disease (Parkinson's disease; neurologist's conclusion June 2020, comparison with peer group): had not progressed
- increase in serum luteinizing hormone levels (luteinizing hormone (LH)): 9%
